Measurements as given in patent publication US11109593B2, “Isoxazolin-5-one derivative and herbicide containing same as active ingredient” (HOKKO CHEMICAL INDUSTRY CO., LTD., priority 2017, dated 2021).

Legend:
Assay type in all cases: in vivo
Echinochloa crus-galli [1] = assay: Test Example 1: herbicidal effect test by treatment of rice paddy soil (immediately after seeding); settings: 120 g/10a active ingredient, dry weight vs untreated area, 14 days after treatment
Summary of the method: (§1)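 Values are herbicidal rates (%) derived from average plant dry weight in treated versus untreated pots 14 days after treatment, run in duplicate. Treatment was a water-diluted emulsion dropped into flooded paddy soil right after sowing, at 120 g active ingredient per 10 ares.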

Scirpus juncoides [2] = assay: as above; settings: 120 g/10a active ingredient, dry weight vs untreated area, 14 days after treatment
Summary of the method: as §1

[3] = test system: broad leaf weeds (Lindernia pyxidaria and Monochoria vaginalis); assay: as above; settings: 120 g/10a active ingredient, dry weight vs untreated area, 14 days after treatment
Summary of the method: as §1

Echinochloa crus-galli [4] = assay: Test Example 2: herbicidal effect test by treatment during growing period in paddy rice cultivation (seven days after seeding); settings: 120 g/10a active ingredient, assessed 14 days after treatment, dry weight vs untreated area
Summary of the method: (§2)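 Paddy soil in Wagner pots with compound fertilizer, puddled; 30 seeds per species sown at 0–1 cm, flooded ~3 cm, greenhouse. Seven days after seeding, water-diluted emulsions were dropped into the water at 120 g active ingredient per 10 ares. Duplicate pots; herbicidal rate from dry weight versus untreated, 14 days after treatment.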

Scirpus juncoides [5] = assay: as above; settings: 120 g/10a active ingredient, assessed 14 days after treatment, dry weight vs untreated area
Summary of the method: as §2

[6] = test system: broad leaf weeds (Lindernia pyxidaria and Monochoria vaginalis); assay: as above; settings: 120 g/10a active ingredient, assessed 14 days after treatment, dry weight vs untreated area
Summary of the method: as §2

Amaranthus viridis [7] = assay: Test Example 3: herbicidal effect test by treatment of dry field farming soil (one day after seeding); settings: 120 g/10a active ingredient, evaluated 14 days after treatment
Summary of the method: (§3)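 Pre-emergence soil treatment: alluvial dry-field soil, 20 seeds per species mixed into top 1 cm, emulsion diluted in water sprayed one day after seeding at 100 L per 10 ares (120 g active ingredient per 10 ares). Duplicate pots; herbicidal rate (%) from dry weight vs untreated at 14 days.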

Chenopodium album [8] = assay: as above; settings: 120 g/10a active ingredient, evaluated 14 days after treatment
Summary of the method: as §3

Echinochloa crus-galli [9] = assay: as above; settings: 120 g/10a active ingredient, evaluated 14 days after treatment
Summary of the method: as §3

southern crabgrass [10] = assay: as above; settings: 120 g/10a active ingredient, evaluated 14 days after treatment
Summary of the method: as §3

Amaranthus viridis [11] = assay: Test Example 4: herbicidal effect test by treatment of leave and stem in dry field farming (seven days after seeding); settings: 120 g/10a active ingredient; emulsion sprayed seven days after seeding; evaluated 14 days after treatment
Summary of the method: (§4)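 Weeds were seeded at 20 seeds per species into the top 1 cm of alluvial upland soil in pots, then sprayed 7 days after seeding with water-diluted emulsifiable concentrate at 100 L/10 a, giving 120 g active ingredient/10 a. Duplicate pots; herbicidal rate (%) was 14 days post-treatment, from dry weight versus untreated.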

Chenopodium album [12] = assay: as above; settings: 120 g/10a active ingredient; emulsion sprayed seven days after seeding; evaluated 14 days after treatment
Summary of the method: as §4

Echinochloa crus-galli [13] = assay: as above; settings: 120 g/10a active ingredient; emulsion sprayed seven days after seeding; evaluated 14 days after treatment
Summary of the method: as §4

southern crabgrass [14] = assay: as above; settings: 120 g/10a active ingredient; emulsion sprayed seven days after seeding; evaluated 14 days after treatment
Summary of the method: as §4

Row | SMILES | Herbicidal rate (%) Echinochloa crus-galli (Echinochloa crus-galli [1]) | Herbicidal rate (%) Scirpus juncoides (Scirpus juncoides [2]) | Herbicidal rate (%) Lindernia pyxidaria [3] | Herbicidal rate (%) Monochoria vaginalis [3] | Herbicidal rate (%) Echinochloa crus-galli (Echinochloa crus-galli [4]) | Herbicidal rate (%) Scirpus juncoides (Scirpus juncoides [5]) | Herbicidal rate (%) Lindernia pyxidaria [6] | Herbicidal rate (%) Monochoria vaginalis [6] | herbicidal rate, Amaranthus viridis (Amaranthus viridis [7]) | herbicidal rate, Chenopodium album (Chenopodium album [8]) | herbicidal rate, Echinochloa crus-galli (Echinochloa crus-galli [9]) | herbicidal rate, southern crabgrass (southern crabgrass [10]) | herbicidal effect (herbicidal rate), Amaranthus viridis (Amaranthus viridis [11]) | herbicidal effect (herbicidal rate), Chenopodium album (Chenopodium album [12]) | herbicidal effect (herbicidal rate), Echinochloa crus-galli (Echinochloa crus-galli [13]) | herbicidal effect (herbicidal rate), southern crabgrass (southern crabgrass [14])
1 | CCC(C)CCn1oc(=O)c(Cc2ccccc2N(S(=O)(=O)C(F)(F)F)S(=O)(=O)C(F)(F)F)c1C (stereo not shown) [Compound 1-978] | 100% | 90% | 90% | 80% | 100% | 60% | 50% | 60% | 90% | 90% | 80% | 90% | 40% | 40% | 60% | 50%
2 | CCCCC(CC)Cn1oc(=O)c(Cc2ccccc2N(S(=O)(=O)C(F)(F)F)S(=O)(=O)C(F)(F)F)c1C (stereo not shown) [Compound 1-980] | 100% | 90% | 100% | 80% | 100% | 80% | 80% | 80% | 40% | 40% | 40% | 60% | 40% | 40% | 60% | 40%
3 | C=CCn1oc(=O)c(Cc2ccccc2N(S(=O)(=O)C(F)(F)F)S(=O)(=O)C(F)(F)F)c1C [Compound 1-985] | 90% | 90% | 100% | 70% | 90% | 60% | 60% | 60% | 80% | 80% | 70% | 70% | 60% | 60% | 90% | 60%
4 | C=CC(C)n1oc(=O)c(Cc2ccccc2N(S(=O)(=O)C(F)(F)F)S(=O)(=O)C(F)(F)F)c1C (stereo not shown) [Compound 1-986] | 90% | 90% | 90% | 80% | 90% | 90% | 40% | 70% | 60% | 60% | 100% | 80% | 60% | 40% | 90% | 90%
5 | Cc1c(Cc2ccccc2N(S(=O)(=O)C(F)(F)F)S(=O)(=O)C(F)(F)F)c(=O)on1C1CCCCC1 [Compound 1-990] | 90% | 80% | 90% | 80% | 100% | 80% | 100% | 80% | 0% | 50% | 50% | 50% | 50% | 40% | 60% | 0%
6 | Cc1c(Cc2ccccc2N(S(=O)(=O)C(F)(F)F)S(=O)(=O)C(F)(F)F)c(=O)on1C(C)C1CC1 (stereo not shown) [Compound 1-992] | 100% | 100% | 90% | 100% | 90% | 80% | 50% | 90% | 40% | 40% | 90% | 90% | 40% | 40% | 90% | 50%
7 | Cc1c(Cc2ccccc2N(S(=O)(=O)C(F)(F)F)S(=O)(=O)C(F)(F)F)c(=O)on1CC1(C)CC1 [Compound 1-993] | 100% | 100% | 100% | 100% | 90% | 90% | 50% | 60% | 40% | 40% | 90% | 80% | 40% | 40% | 60% | 40%
